# Source: patent US20220187282A1, “CARDIOMYOCYTE PROLIFERATION” (The Council of the Queensland Institute of Medical Research, priority 2019, published 2022)
# Like-named read-outs stand apart in the source and are kept apart here.
# Columns and labels:
# Type in all cases: biochemical
# [1] = molecular target: kinases (Homo sapiens, UniProt P07333); details: CSF1R (FMS) FRET-Z-Lyte SP; Test Conc(μM):ATP Conc(μM) 1:500
# [2] = molecular target: kinases (Homo sapiens, UniProt Q8NE63); details: HIPK4 FRET-Z-Lyte SP; Test Conc(μM):ATP Conc(μM) 1:50
# [3] = molecular target: kinases (Homo sapiens, UniProt Q86UX6); details: STK32C (YANK3) FRET-Lantha SP; Test Conc(μM) 1
# [4] = molecular target: kinases (Homo sapiens, UniProt P30291); details: WEE1 FRET-Lantha SP; Test Conc(μM) 1
# [5] = molecular target: kinases (Homo sapiens, UniProt Q99640); details: PKMYT1 FRET-Lantha SP; Test Conc(μM) 1
# [6] = molecular target: kinases (Homo sapiens, UniProt P28482); details: MAPK1 (ERK2) FRET-Z-Lyte SP; Test Conc(μM):ATP Conc(μM) 1:100
# [7] = molecular target: kinases (Homo sapiens, UniProt Q9Y463); details: DYRK1B FRET-Z-Lyte SP; Test Conc(μM):ATP Conc(μM) 1:75
# [8] = molecular target: kinases (Homo sapiens, UniProt P00519); details: ABL1 Hu Phos FRET-Z-Lyte SP; Test Conc(μM):ATP Conc(μM) 1:10
# [9] = molecular target: kinases (Homo sapiens, UniProt P22612); details: PRKACG FRET-Lantha SP; Test Conc(μM) 1
# [10] = molecular target: kinases (Homo sapiens, UniProt P48730); details: CSNK1D (CK1 delta) Z-Lyte SP; Test Conc(μM):ATP Conc(μM) 1:5
# [11] = molecular target: kinases (Homo sapiens, UniProt P27037); details: ACVR2A FRET-Lantha SP; Test Conc(μM) 1
# [12] = molecular target: kinases (Homo sapiens, UniProt P05771); details: PRKCB1 (PKC beta I) Z-Lyte SP; Test Conc(μM):ATP Conc(μM) 1:200
# [13] = molecular target: kinases (Homo sapiens, UniProt Q9H2G2); details: SLK Hu Bind FRET-Lantha SP; Test Conc(μM) 1
# [14] = molecular target: kinases (Homo sapiens, UniProt Q9BYT3); details: STK33 FRET-Lantha SP; Test Conc(μM) 1
# [15] = molecular target: kinases (Homo sapiens, UniProt Q13188); details: STK3 (MST2) FRET-Z-Lyte SP; Test Conc(μM):ATP Conc(μM) 1:50
# [16] = molecular target: kinases (Homo sapiens, UniProt P54760); details: EPHB4 FRET-Z-Lyte SP; Test Conc(μM):ATP Conc(μM) 1:100
# [17] = molecular target: kinases (Homo sapiens, UniProt P42679); details: MATK (HYL) FRET-Z-Lyte SP
# [18] = molecular target: kinases (Homo sapiens, UniProt Q9Y6M4); details: CSNK1G3 (CK1gamma3) Z-Lyte SP; Test Conc(μM):ATP Conc(μM) 1:5
# [19] = molecular target: kinases (Homo sapiens, UniProt Q12866); details: MERTK (cMER) *Mn* Z-Lyte SP; Test Conc(μM):ATP Conc(μM) 1:10
# [20] = molecular target: kinases (Homo sapiens, UniProt O00506); details: STK25 (YSK1) FRET-Z-Lyte SP; Test Conc(μM):ATP Conc(μM) 1:75
# [21] = molecular target: kinases (Homo sapiens, UniProt Q96NX5); details: CAMK1G FRET-Z-Lyte SP
# [22] = molecular target: kinases (Homo sapiens, UniProt Q13873); details: BMPR2 FRET-Lantha SP; Test Conc(μM) 1
# [23] = molecular target: kinases (Homo sapiens, UniProt Q96RG2); details: PASK FRET-Z-Lyte SP; Test Conc(μM):ATP Conc(μM) 1:50
# [24] = molecular target: kinases (Homo sapiens, UniProt Q92918); details: MAP4K1 (HPK1) FRET-Lantha SP; Test Conc(μM) 1
# [25] = molecular target: kinases (Homo sapiens, UniProt P15735); details: PHKG2 FRET-Z-Lyte SP; Test Conc(μM):ATP Conc(μM) 1:10
# [26] = molecular target: kinases (Homo sapiens, UniProt P06241)
# [27] = molecular target: kinases (Homo sapiens, UniProt Q9UBE8); details: NLK FRET-Lantha SP; Test Conc(μM) 1
# [28] = molecular target: kinases (Homo sapiens, UniProt P53667); details: LIMK1 FRET-Lantha SP; Test Conc(μM) 1
# [29] = molecular target: kinases (Homo sapiens, UniProt Q9UBS0); details: RPS6KB2 FRET-Z-Lyte SP; Test Conc(μM):ATP Conc(μM) 1:50
# [30] = Test Conc(μM):ATP Conc(μM) 1:300
# [31] = FYN A FRET-Lantha SP, Test Conc(μM) 1
# [32] = FYN FRET-Z-Lyte SP, Test Conc(μM):ATP Conc(μM) 1:75
# [33] = Test Conc(μM):ATP Conc(μM) 0.25
# Chain of kinases (Homo sapiens, UniProt P06241) (P06241 whole entry): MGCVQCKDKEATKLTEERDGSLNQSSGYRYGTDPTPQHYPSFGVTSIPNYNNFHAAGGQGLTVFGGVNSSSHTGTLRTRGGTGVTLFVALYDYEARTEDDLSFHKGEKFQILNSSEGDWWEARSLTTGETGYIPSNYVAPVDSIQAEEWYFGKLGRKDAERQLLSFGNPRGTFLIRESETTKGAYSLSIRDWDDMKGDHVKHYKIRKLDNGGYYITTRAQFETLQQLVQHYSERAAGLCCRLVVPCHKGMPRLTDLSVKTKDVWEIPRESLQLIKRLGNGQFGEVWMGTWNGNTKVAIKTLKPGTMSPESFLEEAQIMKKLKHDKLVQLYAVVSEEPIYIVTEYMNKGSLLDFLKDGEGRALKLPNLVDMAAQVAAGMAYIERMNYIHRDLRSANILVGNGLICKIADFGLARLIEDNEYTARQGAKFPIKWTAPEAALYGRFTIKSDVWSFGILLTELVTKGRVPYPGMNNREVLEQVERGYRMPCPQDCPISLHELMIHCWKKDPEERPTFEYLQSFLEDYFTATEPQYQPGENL
# Chain of kinases (Homo sapiens, UniProt P07333) (P07333 20-972): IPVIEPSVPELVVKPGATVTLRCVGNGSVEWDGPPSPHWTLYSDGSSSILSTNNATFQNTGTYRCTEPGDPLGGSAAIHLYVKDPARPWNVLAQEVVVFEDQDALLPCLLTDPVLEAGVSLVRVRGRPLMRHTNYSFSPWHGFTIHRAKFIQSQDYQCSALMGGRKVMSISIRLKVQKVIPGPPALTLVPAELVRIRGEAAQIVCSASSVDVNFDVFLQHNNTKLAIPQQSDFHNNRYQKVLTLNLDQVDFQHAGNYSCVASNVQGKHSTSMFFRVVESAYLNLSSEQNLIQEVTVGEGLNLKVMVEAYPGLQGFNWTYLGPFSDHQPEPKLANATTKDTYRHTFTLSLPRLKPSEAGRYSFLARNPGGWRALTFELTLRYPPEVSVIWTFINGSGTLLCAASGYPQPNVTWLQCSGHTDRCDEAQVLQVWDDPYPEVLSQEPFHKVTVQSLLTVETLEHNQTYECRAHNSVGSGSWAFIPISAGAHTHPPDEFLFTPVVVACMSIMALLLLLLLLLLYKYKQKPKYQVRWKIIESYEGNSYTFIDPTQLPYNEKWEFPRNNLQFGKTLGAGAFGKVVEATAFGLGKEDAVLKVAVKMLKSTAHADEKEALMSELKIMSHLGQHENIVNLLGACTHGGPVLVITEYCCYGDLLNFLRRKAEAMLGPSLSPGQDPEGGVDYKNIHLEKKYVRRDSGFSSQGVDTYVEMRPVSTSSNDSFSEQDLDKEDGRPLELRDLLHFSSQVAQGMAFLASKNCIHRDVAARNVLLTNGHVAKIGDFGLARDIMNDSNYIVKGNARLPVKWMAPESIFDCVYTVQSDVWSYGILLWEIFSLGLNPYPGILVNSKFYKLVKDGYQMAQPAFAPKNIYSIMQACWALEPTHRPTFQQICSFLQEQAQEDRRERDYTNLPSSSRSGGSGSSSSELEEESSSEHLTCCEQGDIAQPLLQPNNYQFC
# Chain of kinases (Homo sapiens, UniProt Q92918) (Q92918 whole entry): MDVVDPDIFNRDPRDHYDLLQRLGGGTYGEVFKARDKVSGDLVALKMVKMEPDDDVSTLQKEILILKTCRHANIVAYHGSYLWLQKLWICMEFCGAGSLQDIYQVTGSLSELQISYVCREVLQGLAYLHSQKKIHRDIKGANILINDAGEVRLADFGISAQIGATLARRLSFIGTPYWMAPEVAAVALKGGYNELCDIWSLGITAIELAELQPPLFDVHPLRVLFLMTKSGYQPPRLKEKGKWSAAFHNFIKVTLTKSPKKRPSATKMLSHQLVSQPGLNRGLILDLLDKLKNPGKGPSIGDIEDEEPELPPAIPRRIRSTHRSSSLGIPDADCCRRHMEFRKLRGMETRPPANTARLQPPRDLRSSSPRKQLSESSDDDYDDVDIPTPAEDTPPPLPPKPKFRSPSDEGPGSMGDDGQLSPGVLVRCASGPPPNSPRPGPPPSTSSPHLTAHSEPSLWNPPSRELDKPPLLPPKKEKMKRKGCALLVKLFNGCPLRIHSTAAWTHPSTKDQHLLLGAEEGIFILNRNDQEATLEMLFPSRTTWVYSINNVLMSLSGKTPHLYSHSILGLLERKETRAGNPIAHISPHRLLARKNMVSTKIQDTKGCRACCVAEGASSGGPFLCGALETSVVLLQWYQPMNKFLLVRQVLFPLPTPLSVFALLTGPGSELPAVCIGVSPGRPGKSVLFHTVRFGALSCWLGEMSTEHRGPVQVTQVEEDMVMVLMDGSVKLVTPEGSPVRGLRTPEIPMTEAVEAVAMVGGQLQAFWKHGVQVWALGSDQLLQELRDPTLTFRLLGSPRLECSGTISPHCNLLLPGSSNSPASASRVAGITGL
# Chain of kinases (Homo sapiens, UniProt Q9Y6M4) (Q9Y6M4 whole entry): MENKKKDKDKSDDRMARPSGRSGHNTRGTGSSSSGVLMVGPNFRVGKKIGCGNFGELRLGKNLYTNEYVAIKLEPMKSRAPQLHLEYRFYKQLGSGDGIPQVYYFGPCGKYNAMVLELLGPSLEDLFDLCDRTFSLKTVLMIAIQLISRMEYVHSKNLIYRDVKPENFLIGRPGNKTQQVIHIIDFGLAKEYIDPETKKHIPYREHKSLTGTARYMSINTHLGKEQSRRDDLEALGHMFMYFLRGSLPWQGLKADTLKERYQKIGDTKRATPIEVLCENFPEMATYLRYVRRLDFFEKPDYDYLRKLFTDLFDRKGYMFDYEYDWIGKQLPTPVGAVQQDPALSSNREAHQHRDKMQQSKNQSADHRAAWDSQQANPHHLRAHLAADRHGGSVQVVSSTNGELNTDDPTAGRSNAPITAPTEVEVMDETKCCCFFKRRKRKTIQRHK
# Chain of kinases (Homo sapiens, UniProt Q9Y463) (Q9Y463 whole entry): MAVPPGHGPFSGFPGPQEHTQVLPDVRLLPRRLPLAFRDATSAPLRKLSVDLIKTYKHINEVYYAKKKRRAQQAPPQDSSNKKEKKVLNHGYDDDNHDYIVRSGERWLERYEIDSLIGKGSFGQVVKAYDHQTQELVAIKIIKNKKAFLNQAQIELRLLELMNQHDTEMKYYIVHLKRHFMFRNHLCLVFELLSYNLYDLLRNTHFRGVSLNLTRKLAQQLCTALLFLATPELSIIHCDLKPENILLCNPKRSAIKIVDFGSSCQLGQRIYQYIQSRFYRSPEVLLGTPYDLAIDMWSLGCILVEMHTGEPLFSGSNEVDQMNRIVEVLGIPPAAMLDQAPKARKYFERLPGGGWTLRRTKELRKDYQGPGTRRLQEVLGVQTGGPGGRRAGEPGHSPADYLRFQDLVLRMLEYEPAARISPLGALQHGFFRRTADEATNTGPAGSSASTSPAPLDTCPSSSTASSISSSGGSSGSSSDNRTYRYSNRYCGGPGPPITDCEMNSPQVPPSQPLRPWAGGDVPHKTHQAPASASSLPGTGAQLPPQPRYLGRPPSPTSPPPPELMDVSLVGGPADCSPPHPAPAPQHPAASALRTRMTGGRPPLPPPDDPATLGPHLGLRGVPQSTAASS
# Chain of kinases (Homo sapiens, UniProt Q9H2G2) (Q9H2G2 whole entry): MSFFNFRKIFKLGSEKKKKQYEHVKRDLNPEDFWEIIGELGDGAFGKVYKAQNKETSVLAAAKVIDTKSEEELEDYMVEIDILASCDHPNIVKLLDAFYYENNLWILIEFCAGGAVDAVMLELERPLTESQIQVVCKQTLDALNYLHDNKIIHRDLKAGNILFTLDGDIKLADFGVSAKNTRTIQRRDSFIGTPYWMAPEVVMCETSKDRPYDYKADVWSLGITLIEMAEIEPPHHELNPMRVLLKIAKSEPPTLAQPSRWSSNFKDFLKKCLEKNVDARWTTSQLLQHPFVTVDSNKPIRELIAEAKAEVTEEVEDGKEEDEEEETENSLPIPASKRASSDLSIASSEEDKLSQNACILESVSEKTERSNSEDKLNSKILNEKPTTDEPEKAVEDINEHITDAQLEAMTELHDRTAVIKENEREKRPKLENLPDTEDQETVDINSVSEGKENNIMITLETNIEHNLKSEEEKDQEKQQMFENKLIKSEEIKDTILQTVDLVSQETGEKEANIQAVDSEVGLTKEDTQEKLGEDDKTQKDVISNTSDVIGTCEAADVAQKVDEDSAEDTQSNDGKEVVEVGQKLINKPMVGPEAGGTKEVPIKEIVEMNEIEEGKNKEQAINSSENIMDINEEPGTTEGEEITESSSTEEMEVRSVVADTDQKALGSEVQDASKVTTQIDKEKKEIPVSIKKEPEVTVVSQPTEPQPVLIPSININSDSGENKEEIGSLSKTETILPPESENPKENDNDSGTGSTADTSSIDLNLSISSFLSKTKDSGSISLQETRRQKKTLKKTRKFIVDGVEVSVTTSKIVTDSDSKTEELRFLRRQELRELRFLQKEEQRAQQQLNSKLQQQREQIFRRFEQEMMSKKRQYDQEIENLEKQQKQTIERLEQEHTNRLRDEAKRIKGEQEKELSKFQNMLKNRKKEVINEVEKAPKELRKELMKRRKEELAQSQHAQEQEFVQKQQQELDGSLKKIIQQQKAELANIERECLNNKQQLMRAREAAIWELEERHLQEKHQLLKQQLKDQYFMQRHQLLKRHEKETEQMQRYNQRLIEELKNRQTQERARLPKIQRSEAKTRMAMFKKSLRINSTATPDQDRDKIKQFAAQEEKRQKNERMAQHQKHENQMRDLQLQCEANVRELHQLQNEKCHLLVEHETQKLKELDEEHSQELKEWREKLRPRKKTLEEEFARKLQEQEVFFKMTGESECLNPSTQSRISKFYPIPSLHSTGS
# Chain of kinases (Homo sapiens, UniProt P22612) (P22612 whole entry): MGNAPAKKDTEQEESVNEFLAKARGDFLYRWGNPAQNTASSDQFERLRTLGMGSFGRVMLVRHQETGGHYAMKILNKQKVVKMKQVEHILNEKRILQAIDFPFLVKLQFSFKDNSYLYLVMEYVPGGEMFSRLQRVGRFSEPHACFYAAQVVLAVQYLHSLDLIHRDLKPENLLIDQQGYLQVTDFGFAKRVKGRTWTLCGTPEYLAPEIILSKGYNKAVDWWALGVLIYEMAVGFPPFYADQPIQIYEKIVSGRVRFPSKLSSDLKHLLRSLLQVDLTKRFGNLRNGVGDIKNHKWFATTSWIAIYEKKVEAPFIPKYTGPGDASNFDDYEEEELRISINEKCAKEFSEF
SMILES,Mean Inhib (%) [1],Mean Inhib (%) [2],Mean Inhib (%) [3],Mean Inhib (%) [4],Mean Inhib (%) [5],Mean Inhib (%) [6],Mean Inhib (%) [7],Mean Inhib (%) [8],Mean Inhib (%) [9],Mean Inhib (%) [10],Mean Inhib (%) [11],Mean Inhib (%) [12],Mean Inhib (%) [13],Mean Inhib (%) [14],Mean Inhib (%) [15],Mean Inhib (%) [16],Mean Inhib (%) [18],Mean Inhib (%) [19],Mean Inhib (%) [20],Mean Inhib (%) [22],further results
Cc1ccc(NC(=O)c2ccnc(N3CCOCC3)c2)cc1Nc1ccnc(N2CC(C)OC(C)C2)n1 (stereo not drawn) [compound 3],12.1%,−2.8%,−1.0%,4.6%,9.3%,3.6%,3.0%,2.8%,0.7%,1.2%,3.8%,27.7%,−3.6%,1.7%,6.9%,1.4%,2.9%,13.1%,8.8%,−4.1%,"Mean Inhib (%) [17, 30]: 3.2%; Mean Inhib (%) [21, 30]: 5.8%; Mean Inhib (%) [23]: 13.7%; Mean Inhib (%) [24]: −1.6%; Mean Inhib (%) [25]: −2.1%; Mean Inhib (%) [26, 31]: 4.8%; Mean Inhib (%) [26, 32]: 5.1%; Mean Inhib (%) [27]: −3.5%; Mean Inhib (%) [28]: 2.2%; Mean Inhib (%) [29]: 7.8%"
Cc1cc(Oc2ccnc(Nc3ccc(S(N)(=O)=O)cc3)c2)c(-c2ccccn2)nc1C [compound 65],20.0%,8.8%,7.8%,1.2%,−14.5%,7.5%,−5.0%,85.2%,2.2%,1.9%,71.5%,−7.3%,3.0%,−6.6%,1.1%,58.1%,0.1%,7.3%,2.0%,2.7%,"Mean Inhib (%) [17, 33]: 1.8%; Mean Inhib (%) [21, 33]: −3.7%; Mean Inhib (%) [23]: 3.8%; Mean Inhib (%) [24]: 11.3%; Mean Inhib (%) [25]: 4.0%; Mean Inhib (%) [26, 31]: 27.5%; Mean Inhib (%) [26, 32]: 43.1%; Mean Inhib (%) [27]: 88.8%; Mean Inhib (%) [28]: 1.8%; Mean Inhib (%) [29]: 2.1%"
